# pEC50: −log10 of the molar value. Like-named read-outs stand apart in the source and are kept apart here.
# Key:
# [1] = test system: HCV genotype 1b (Con1) replicon in HUH-7 cells; test: HCV replicon luciferase reporter assay, genotype 1b; type: cell-based; conditions: Hepatitis C virus, Huh-7, 72 h, 3 days incubation, read-out: LE_1b (EC50, range)
# Procedure, shortened: (§1)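 Replicon inhibition for both genotypes was measured as Renilla luciferase signal (EnduRen, 7.5 μM final, 2 h) after 3-day, 37° C exposure of replicon-bearing HUH-7 cells in 4% FCS DMEM, 0.5% DMSO. The 1b construct carries S1179I; the 1a H77 construct carries P1496L and S2204I. Twenty-point, 3-fold dilutions were fitted four-parametrically for EC50, and CC50 was taken from multiplexed Cell Titer-Blue.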
# [2] = test system: HCV genotype 1a (H77 strain) replicon in HUH-7 cells; test: HCV replicon luciferase reporter assay, genotype 1a; type: cell-based; conditions: Hepatitis C virus, Huh-7, 72 h, 3 days incubation, read-out: LE_1a (EC50, range)
# Procedure, shortened: as §1
# [3] = HCV genotype 1b replicon luciferase
# [4] = HCV genotype 1a replicon luciferase
# [5] = HCV genotype 1b replicon luciferase assay, range class
# [6] = HCV genotype 1a replicon luciferase assay, range class
# [7] = GETYPE1B, HCV genotype 1b replicon luciferase
# [8] = GETYPE1A, HCV genotype 1a replicon luciferase
SMILES,"pEC50 [1, 3]","pEC50 [2, 4]",further results
"[2H]C([2H])([2H])C(OC(=O)N[C@@H]1C(=O)N2C[C@H](Oc3nccc4c5c(ccc34)N(C)CCO5)C[C@H]2C(=O)N[C@]2(C(=O)NS(=O)(=O)C3CC3)C[C@H]2/C=C\CC[C@H](C)C[C@H]1CC)(C([2H])([2H])[2H])C(F)(F)F [Compound 5311, 1,1,1,3,3,3-hexadeutero-2-(trifluoromethyl)propan-2-yl((2R,6S,7R,9S,13aS,14aR,16aS,Z)-14a-((cyclopropylsulfonyl)carbamoyl)-7-ethyl-9-methyl-2-((4-methyl-3,4-dihydro-2H-[1,4]oxazino[2,3-f]isoquinolin-7-yl)oxy)-5,16-dioxo-1,2,3,5,6,7,8,9,10,11,13a,14,14a,15,16,16a-hexadecahydrocyclopropa[e]pyrrolo[1,2-a][1,4]diazacyclopentadecin-6-yl)carbamate]",> 8.26,> 8.26,
"CC(C)Oc1cc2c(Cl)cccc2c(O[C@@H]2C[C@H]3C(=O)N[C@]4(C(=O)NS(=O)(=O)C5CC5)C[C@H]4/C=C\CC[C@H](C)C[C@@H](C)[C@H](NC(=O)OC(C)(C)C(C)(F)F)C(=O)N3C2)n1 [Compound 1105, 3,3-difluoro-2-methylbutan-2-yl((2R,6S,7R,9S,13aS,14aR,16aS,Z)-2-((5-chloro-3-isopropoxyisoquinolin-1-yl)oxy)-14a-((cyclopropylsulfonyl)carbamoyl)-7,9-dimethyl-5,16-dioxo-1,2,3,5,6,7,8,9,10,11,13a,14,14a,15,16,16a-hexadecahydrocyclopropa[e]pyrrolo[1,2-a][1,4]diazacyclopentadecin-6-yl)carbamate]",,,"pEC50 [1, 5]: > 8.26; pEC50 [2, 6]: > 8.26"
"CC(C)Oc1ccc2c(O[C@@H]3C[C@H]4C(=O)N[C@]5(C(=O)NS(=O)(=O)C6CC6)C[C@H]5/C=C\CC[C@@H](C)C[C@@H](C)[C@H](NC(=O)OC(C)(C)C)C(=O)N4C3)nccc2c1 [Compound 5146, tert-butyl ((2R,6S,7R,9R,13aS,14aR,16aS,Z)-14a-((cyclopropylsulfonyl)carbamoyl)-2-((6-isopropoxyisoquinolin-1-yl)oxy)-7,9-dimethyl-5,16-dioxo-1,2,3,5,6,7,8,9,10,11,13a,14,14a,15,16,16a-hexadecahydrocyclopropa[e]pyrrolo[1,2-a][1,4]diazacyclopentadecin-6-yl)carbamate]",> 8.26,> 8.26,
"COc1ccc2c(O[C@@H]3C[C@H]4C(=O)N[C@]5(C(=O)NS(=O)(=O)C6CC6)C[C@H]5/C=C\CC[C@H](C)C[C@@H](C)[C@H](NC(=O)OC(C)(C)C(F)(F)F)C(=O)N4C3)nc(-c3ccc(OC(C)C)cn3)cc2c1 [Compound 5202, 1,1,1-trifluoro-2-methylpropan-2-yl((2R,6S,7R,9S,13aS,14aR,16aS,Z)-14a-((cyclopropylsulfonyl)carbamoyl)-2-((3-(5-isopropoxypyridin-2-yl)-6-methoxyisoquinolin-1-yl)oxy)-7,9-dimethyl-5,16-dioxo-1,2,3,5,6,7,8,9,10,11,13a,14,14a,15,16,16a-hexadecahydrocyclopropa[e]pyrrolo[1,2-a][1,4]diazacyclopentadecin-6-yl)carbamate]",> 8.26,> 8.26,
"[2H]C([2H])([2H])C(OC(=O)N[C@@H]1C(=O)N2C[C@H](Oc3nccc4c5c(ccc34)N(C)CCO5)C[C@H]2C(=O)N[C@]2(C(=O)NS(=O)(=O)C3CC3)C[C@H]2/C=C\CC[C@@H](C)C[C@H]1CC)(C([2H])([2H])[2H])C(F)(F)F [Compound 5312, 1,1,1,3,3,3-hexadeutero-2-(trifluoromethyl)propan-2-yl((2R,6S,7R,9R,13aS,14aR,16aS,Z)-14a-((cyclopropylsulfonyl)carbamoyl)-7-ethyl-9-methyl-2-((4-methyl-3,4-dihydro-2H-[1,4]oxazino[2,3-f]isoquinolin-7-yl)oxy)-5,16-dioxo-1,2,3,5,6,7,8,9,10,11,13a,14,14a,15,16,16a-hexadecahydrocyclopropa[e]pyrrolo[1,2-a][1,4]diazacyclopentadecin-6-yl)carbamate]",> 8.26,> 8.26,
"COc1ccc2c(O[C@@H]3C[C@H]4C(=O)N[C@]5(C(=O)NS(=O)(=O)C6(C)CC6)C[C@H]5/C=C\CC[C@@H](C)C[C@@H](C)[C@H](NC(=O)O[C@H](C)C(F)(F)F)C(=O)N4C3)nc(-c3ccc(OC(C)C)c(F)c3)cc2c1 [Compound 3076, (R)-1,1,1-trifluoropropan-2-yl ((2R,6S,7R,9R,13aS,14aR,16aS,Z)-2-((3-(3-fluoro-4-isopropoxyphenyl)-6-methoxyisoquinolin-1-yl)oxy)-7,9-dimethyl-14a-(((1-methylcyclopropyl)sulfonyl)carbamoyl)-5,16-dioxo-1,2,3,5,6,7,8,9,10,11,13a,14,14a,15,16,16a-hexadecahydrocyclopropa[e]pyrrolo[1,2-a][1,4]diazacyclopentadecin-6-yl)carbamate]",,,"pEC50 [1, 5]: > 8.26; pEC50 [2, 6]: > 8.26"
"CCCOc1cnc(O[C@@H]2C[C@H]3C(=O)N[C@]4(C(=O)NS(=O)(=O)C5CC5)C[C@H]4/C=C\CC[C@H](C)C[C@@H](C)[C@H](NC(=O)O[C@@H]4C[C@@H]5C[C@@H]5C4)C(=O)N3C2)c2ccccc12 [Compound 5092, (1R,3r,5S)-bicyclo[3.1.0]hexan-3-yl((2R,6S,7R,9S,13aS,14aR,16aS,Z)-14a-((cyclopropylsulfonyl)carbamoyl)-7,9-dimethyl-5,16-dioxo-2-((4-propoxyisoquinolin-1-yl)oxy)-1,2,3,5,6,7,8,9,10,11,13a,14,14a,15,16,16a-hexadecahydrocyclopropa[e]pyrrolo[1,2-a][1,4]diazacyclopentadecin-6-yl)carbamate]",6.99 to 8.32,< 7.06,
COc1ccc2c(O[C@@H]3C[C@H]4C(=O)N[C@]5(C(=O)NS(=O)(=O)C6(F)CC6)C[C@H]5/C=C\CC[C@@H](C)C[C@@H](C)[C@H](NC(=O)OCC(C)C)C(=O)N4C3)nccc2c1 [Compound 4018],> 8.26,> 8.26,
"CCOc1ccc2nc(C(F)(F)F)c(O[C@@H]3C[C@H]4C(=O)N[C@]5(C(=O)NS(=O)(=O)C6(C)CC6)C[C@H]5/C=C\CC[C@H](C)C[C@@H](C)[C@H](NC(=O)OC(C)(C)C)C(=O)N4C3)nc2c1 [Compound 4347, tert-butyl ((2R,6S,7R,9S,13aS,14aR,16aS,Z)-2-((7-ethoxy-3-(trifluoromethyl)quinoxalin-2-yl)oxy)-7,9-dimethyl-14a-(((1-methylcyclopropyl)sulfonyl)carbamoyl)-5,16-dioxo-1,2,3,5,6,7,8,9,10,11,13a,14,14a,15,16,16a-hexadecahydrocyclopropa[e]pyrrolo[1,2-a][1,4]diazacyclopentadecin-6-yl)carbamate]",8.30 to 9.00,7.46 to 8.30,
"COc1ccc2c(O[C@@H]3C[C@H]4C(=O)N[C@]5(C(=O)NS(=O)(=O)C6CC6)C[C@H]5/C=C\CC[C@@H](C)C[C@@H](C)[C@H](NC(=O)OC(C)(C)C)C(=O)N4C3)nc(-c3ccc4c(c3)OCCO4)cc2c1 [Compound 5239, tert-butyl ((2R,6S,7R,9R,13aS,14aR,16aS,Z)-14a-((cyclopropylsulfonyl)carbamoyl)-2-((3-(2,3-dihydrobenzo[b][1,4]dioxin-6-yl)-6-methoxyisoquinolin-1-yl)oxy)-7,9-dimethyl-5,16-dioxo-1,2,3,5,6,7,8,9,10,11,13a,14,14a,15,16,16a-hexadecahydrocyclopropa[e]pyrrolo[1,2-a][1,4]diazacyclopentadecin-6-yl)carbamate]",> 8.26,> 8.26,
COc1ccc2nc(C(C)C)c(O[C@@H]3C[C@H]4C(=O)N[C@]5(C(=O)NS(=O)(=O)C6CC6)C[C@H]5/C=C\CC[C@H](C)C[C@@H](C)[C@H](NC(=O)OC(C)(C)C(F)(F)F)C(=O)N4C3)nc2c1 [Compound 4318],,,"pEC50 [1, 7]: 8.30 to 9.00; pEC50 [2, 8]: 7.46 to 8.30"
"CCOc1ccc2c(O[C@@H]3C[C@H]4C(=O)N[C@]5(C(=O)NS(=O)(=O)C6(C)CC6)C[C@H]5/C=C\CC[C@@H](C)C[C@@H](C)[C@H](NC(=O)NC(C)(C)C(F)(F)F)C(=O)N4C3)nccc2c1 [Compound 5144, (2R,6S,7R,9R,13aS,14aR,16aS,Z)-2-((6-ethoxyisoquinolin-1-yl)oxy)-7,9-dimethyl-N-((1-methylcyclopropyl)sulfonyl)-5,16-dioxo-6-(3-(1,1,1-trifluoro-2-methylpropan-2-yl)ureido)-1,2,3,5,6,7,8,9,10,11,13a,14,14a,15,16,16a-hexadecahydrocyclopropa[e]pyrrolo[1,2-a][1,4]diazacyclopentadecine-14a-carboxamide]",> 8.26,6.99 to 8.32,
"CCOc1cc2cc(OC)ccc2c(O[C@@H]2C[C@H]3C(=O)N[C@]4(C(=O)NS(=O)(=O)C5(C)CC5)C[C@H]4/C=C\CC[C@@H](C)C[C@@H](C)[C@H](NC(=O)OC(C)(C)C(F)(F)F)C(=O)N3C2)n1 [Compound 3198, 1,1,1-trifluoro-2-methylpropan-2-yl((2R,6S,7R,9R,13aS,14aR,16aS,Z)-2-((3-ethoxy-6-methoxyisoquinolin-1-yl)oxy)-7,9-dimethyl-14a-(((1-methylcyclopropyl)sulfonyl)carbamoyl)-5,16-dioxo-1,2,3,5,6,7,8,9,10,11,13a,14,14a,15,16,16a-hexadecahydrocyclopropa[e]pyrrolo[1,2-a][1,4]diazacyclopentadecin-6-yl)carbamate]",8.30 to 9.00,9.00 to 9.29,
COc1ccc2c(O[C@@H]3C[C@H]4C(=O)N[C@]5(C(=O)NS(=O)(=O)C6(C)CC6)C[C@H]5/C=C\CC[C@@H](C)C[C@@H](C)[C@H](NC(=O)OC(C)(C)C(F)(F)F)C(=O)N4C3)ncc(OC(=O)OC(C)(C)C(F)(F)F)c2c1 [Compound 4106],,,"pEC50 [1, 7]: 6.99 to 8.32; pEC50 [2, 8]: 6.99 to 8.32"
